Like-named read-outs stand apart in the source and are kept apart here.
Tests used:
NL4-3 (WT) = assay: Cytopathic cell killing assay, cross-resistance profile, infected MT-4 cells; format: cell-based, HIV-1
Excerpt: (§1) The various HIV isolates tested in the Figures are those corresponding to wild-type virus (NL4-3) and the other strains listed by their RT mutations. The three 4xAZT isolates included in the Figures represent AZT drug-resistant variants. For example, the 4xAZT/L100I isolate has five mutations: four mutations confer increased resistance to AZT, and the other mutation is located within the NNRTI binding pocket. TZB and nevir. (nevirapine) are two well-known NNRTIs, included in this experiment for comparison purposes. […]
(§2) In this Example, the antiviral and cellular toxicity of NNRTIs was investigated, using the cytopathic cell killing assay described by Yang (Yang et al., "Characteristics of a Group of Non-nucleoside Reverse Transcriptase Inhibitors with Structural Diversity and Potent Anti-Human Immunodeficiency Virus Activity," Leukemia 9:S75-S85 [1995]). Briefly, in this method cells (e.g., the CEM-SS cell line, available from the NIAID AIDS Research and Reference Program [ARRRP]) were seeded at a density of 5 x 10^3 cells/well, into the wells of a 96-well microtiter plate. The cells were then infected with HIV virus (either mutant or WT), at a multiplicity of infection (MOI) previously determined to provide complete cell killing by 6 days of culture post-infection (e.g., MOI of 0.01-0.05). Each of the HIV isolates was pre-titered to induce equivalent levels of infection based on cell killing or virus production, prior to their use in these assays. A range of test compound concentrations was added to the wells in triplicate (e.g., serial half-log dilutions) to evaluate inhibition of HIV infection. Controls for each assay included drug controls (drug colorimetric control wells), drug cytotoxicity control wells (cells with drug), virus control wells (cells with virus), and cell viability controls (cells only). Positive control drugs (e.g., AZT and ddC) were also run in parallel.
(§3) After six days of incubation at 37°C, cell viability was determined spectrophotometrically at 450 nm for each well, using the metabolic reduction of XTT to a soluble colored formazan. (See, Gartner and Popovic, "Virus Isolation and Production, in Aldovini and Walker (eds.), Techniques in HIV Research, Stockton Press, NY, pp. […] [1991]; and Nara and Fischinger, "Quantitative Infectivity Assay for HIV-1 and HIV-2," Nature 332:469-470 [1988]).
(§4) The in vitro therapeutic index (TI50) was defined as the fold-difference between the EC50 and IC50. The results for the various compounds are included in Figures 8 and 19.

WT virus (NL4-3) = assay: microbe, parasite or virus in culture; format: cell-based, HIV-1; conditions: for EC50: read-out: EC50
Protocol: Evaluation of these compounds for the inhibition of HIV-1 was determined as the fifty percent cell culture inhibitory concentration (CIC50) in CEMSS cell culture with WT virus (NL4-3).
as §2, §3, §4

HIV-1 variant Y188C = assay: Cytopathic cell killing assay, cross-resistance profile, infected MT-4 cells; format: cell-based
Excerpt: as §1, §2, §3, §4

[1] = test system: HIV-1 isolate 4xAZT/Y181C; assay: as above; format: cell-based; conditions: isolate 4XAZT /Y181C
Excerpt: as §1, §2, §3, §4

HIV-1 isolate 4xAZT = assay: as above; format: cell-based; conditions: isolate 4XAZT
Excerpt: as §1, §2, §3, §4

HIV-1 variant K101E = assay: as above; format: cell-based
Excerpt: as §1, §2, §3, §4

HIV-1 variant L74V = assay: as above; format: cell-based
Excerpt: as §1, §2, §3, §4

HIV-1 variant A98G = assay: as above; format: cell-based
Excerpt: as §1, §2, §3, §4

HIV-1 variant V179D = assay: as above; format: cell-based; conditions: isolate V179D
Excerpt: as §1, §2, §3, §4

HIV-1 variant L100I = assay: as above; format: cell-based
Excerpt: as §1, §2, §3, §4

HIV-1 variant V108I = assay: as above; format: cell-based
Excerpt: as §1, §2, §3, §4

HIV-1 variant V106A = assay: as above; format: cell-based
Excerpt: as §1, §2, §3, §4

HIV-1 variant K103N = assay: as above; format: cell-based; conditions: for EC50: isolate K103N
Excerpt: as §1, §2, §3, §4

[2] = test system: HIV-1 isolate 4xAZT/L100I; assay: as above; format: cell-based; conditions: Human immunodeficiency virus 1, MT4, Table 8; isolate 4XA7T L 1001
Protocol: The various HIV isolates tested in the Figures are those corresponding to wild-type virus (NL4-3) and the other strains listed by their RT mutations. The three 4xAZT isolates included in the Figures represent AZT drug-resistant variants. […]
as §2, with “Briefly,” for “In this Example, the antiviral and cellular toxicity of NNRTIs was investigated, using the cytopathic cell killing assay described by Yang (Yang et al., "Characteristics of a Group of Non-nucleoside Reverse Transcriptase Inhibitors with Structural Diversity and Potent Anti-Human Immunodeficiency Virus Activity," Leukemia 9:S75-S85 [1995]). Briefly,”
as §3
The in vitro therapeutic index (TI50) was defined as the fold-difference between the EC50 and IC50.

HIV-1 WT RT = target: T1, HIV-1 WT RT (Human immunodeficiency virus type 1 group M subtype B, UniProt P03366); assay: biochemical; conditions: for IC50: read-out: IC50
T1 construct: purified RT protein (0.015 mg/mL) was incubated in a 100 µL reaction mixture

HIV-1 variant Y181C = assay: Cytopathic cell killing assay, cross-resistance profile, infected MT-4 cells; format: cell-based; conditions: isolate Y181C
Excerpt: as §1, §2, §3, §4

[3] = Human immunodeficiency virus 1, NL43, MT4, Table 8, isolate N1.43
[4] = Human immunodeficiency virus 1, NL43, CEM-SS, Table 7, concentration reducing cell killing or virus production by 50%, HIV-1 WT
[5] = Human immunodeficiency virus 1, NL43, CEM-SS, Table 11, CEMSS/NL4-3, NRVC = reduction in viral CPE not seen (footnote)
[6] = Human immunodeficiency virus 1, MT4, Table 8, isolate Y 188C
[7] = Human immunodeficiency virus 1, MT4, Table 8
[8] = Human immunodeficiency virus 1, MT4, Table 8, isolate K101E
[9] = Human immunodeficiency virus 1, MT4, Table 8, isolate 1.74V
[10] = Human immunodeficiency virus 1, MT4, Table 8, isolate A9SG
[11] = Human immunodeficiency virus 1, MT4, Table 8, isolate 1.1001
[12] = Human immunodeficiency virus 1, MT4, Table 8, isolate V1081
[13] = Human immunodeficiency virus 1, MT4, Table 8, isolate V 106A
[14] = Human immunodeficiency virus 1, MT4, Table 10 (values in µM)
[15] = Human immunodeficiency virus 1, MT4, Table 9
[16] = Table 10 (values in µM), read-out: EC50

Row | Compound | EC50 (NL4-3 (WT); [3]) [µM] | EC50 (WT virus (NL4-3); [4]) [nM] | EC50 (WT virus (NL4-3); [5]) [nM] | EC50 (HIV-1 variant Y188C; [6]) [µM] | EC50 [1, 7] [nM] | EC50 (HIV-1 isolate 4xAZT; [7]) [µM] | EC50 (HIV-1 variant K101E; [8]) [µM] | EC50 (HIV-1 variant L74V; [9]) [nM] | EC50 (HIV-1 variant A98G; [10]) [nM] | EC50 (HIV-1 variant V179D; [7]) [nM] | EC50 (HIV-1 variant L100I; [11]) [µM] | EC50 (HIV-1 variant V108I; [12]) [µM] | EC50 (HIV-1 variant V106A; [13]) [µM] | EC50 (HIV-1 variant K103N; [7]) [µM] | EC50 [2] [nM] | IC50 (HIV-1 WT RT; Table 7, HIV-1 WT RT) [µM] | IC50 (HIV-1 WT RT; Table 11, WT RT) [µM] | further results
1 | CC(=O)N(C)c1cccc2c1nc(-c1c(F)cccc1F)n2Cc1c(F)cccc1F [compound 57, 1-(2,6-Difluorobenzyl)-2-(2,6-difluorophenyl)-4-(N-methylacetamido)-benzimidazole] | 0.04 | 20 | 20 | 0.5 | > 10000 | > 10 | 0.6 | 70 | 100 | 400 | 1.7 | > 10 | 0.05 | > 10 | 1800 | – | – | EC50 (WT virus (NL4-3); Human immunodeficiency virus 1, NL43, CEM-SS, cytopathic cell killing assay, HIV-1 WT): 20 nM; -fold more potent than the 4-methyl or 4-amino compounds (WT virus (NL4-3); cytopathic cell killing assay): 20 fold
2 | CNc1cccc2c1nc(-c1c(F)cccc1F)n2Cc1c(F)cccc1F [compound 58, 1-(2,6-Difluorobenzyl)-2-(2,6-difluorophenyl)-4-(N-methylamino)-benzimidazole] | 2.6 | 1700 | 1700 | > 20 | > 20000 | > 10 | > 20 | 3900 | 8500 | > 10000 | 0.4 | > 20 | > 20 | > 20 | 1000 | – | – | –
3 | Fc1cccc(F)c1Cn1c(-c2c(F)cccc2F)nc2c(Br)cccc21 [compound 54, 4-bromo-1-(2,6-difluorobenzyl)-2-(2,6-difluorophenyl)benzimidazole] | – | 370 | 370 | – | – | – | – | – | – | – | – | – | – | – | – | 1.61 | 1.61 | EC50 (NL4-3 (WT); Human immunodeficiency virus 1, NL43, MT4, Table 10 (values in µM), isolate NL4-3 (WT)): 0.5 µM; inhibition at 1 µM (HIV-1 WT RT; Table 6, WT HIV-1 RT, 1 µM drug, average of two experiments done in triplicates, read-out: %Inhibn (1µM)): 78%; inhibition at 1 µM (HIV-1 WT RT; Table 7, WT HIV-1 RT, 1 µM drug, read-out: %inhibn (1µM)): 78%; EC50 (HIV-1 variant Y188C; Human immunodeficiency virus 1, MT4, Table 10 (values in µM), isolate Y188C): 3.7 µM; EC50 (HIV-1 variant Y181C; [14]): 10.7 µM; EC50 (HIV-1 variant K101E; Human immunodeficiency virus 1, MT4, Table 10 (values in µM), isolate K101E): > 20 µM; EC50 (HIV-1 variant L100I; Human immunodeficiency virus 1, MT4, Table 10 (values in µM), isolate L1001): 0.5 µM; EC50 (HIV-1 variant V108I; Human immunodeficiency virus 1, MT4, Table 10 (values in µM), isolate V108l): 4.2 µM; EC50 (HIV-1 variant K103N; [14]): > 20 µM
4 | Cc1ccnc2c1NC(=O)c1cccnc1N2C1CC1 [nevirapine, reference compound] | 0.04 | – | 35 | > 0.5 | 3000 | > 0.5 | 1.1 | 40 | 800 | 4900 | 0.2 | 0.4 | > 10 | > 10 | – | – | – | EC50 (NL4-3 (WT); Human immunodeficiency virus 1, NL43, MT4, Table 9, isolate NL4.3): 0.04 µM; EC50 (HIV-1 variant Y188C; Human immunodeficiency virus 1, MT4, Table 9, isolate Y188C): > 0.5 µM; EC50 [1, 15]: 3000 nM; EC50 (HIV-1 isolate 4xAZT; [15]): > 0.5 µM; EC50 (HIV-1 variant Y181C; [15]): 4.9 µM; EC50 (HIV-1 variant K101E; Human immunodeficiency virus 1, MT4, Table 9, isolate KIOIE): 1.1 µM; EC50 (HIV-1 variant L74V; Human immunodeficiency virus 1, MT4, Table 9, isolate 1.74 V): 40 nM; EC50 (HIV-1 variant A98G; Human immunodeficiency virus 1, MT4, Table 9, isolate A98G): 800 nM; EC50 (HIV-1 variant V179D; [15]): 200 nM; EC50 (HIV-1 variant L100I; Human immunodeficiency virus 1, MT4, Table 9, isolate L1001): 0.2 µM; EC50 (HIV-1 variant V108I; Human immunodeficiency virus 1, MT4, Table 9, isolate V1081): 0.4 µM; EC50 (HIV-1 variant V106A; Human immunodeficiency virus 1, MT4, Table 9, isolate V106A): > 10 µM; EC50 (HIV-1 variant K103N; [15]): > 10 µM; activity against the K103N mutation / isolate (HIV-1 variant K103N; result in words, cytopathic cell killing assay): ineffective
5 | 1-(2,6-difluorobenzyl)-2-(2,6-difluorophenyl)-4-acetamidobenzimidazole [compound 56] | – | – | – | – | – | – | – | – | – | – | – | – | – | – | – | 54.7 | 54.7 | EC50 (NL4-3 (WT); Table 8, isolate N1.43, read-out: EC50): 1.6 µM; EC50 (NL4-3 (WT); Table 10 (values in µM), isolate NL4-3 (WT), read-out: EC50): 1.97 µM; %inhibn (1µM) (HIV-1 WT RT; Table 7, WT HIV-1 RT, 1 µM drug): 24%; EC50 (WT virus (NL4-3); Table 7, concentration reducing cell killing or virus production by 50%, HIV-1 WT): 1480 nM; EC50 (WT virus (NL4-3); Table 11, CEMSS/NL4-3, NRVC = reduction in viral CPE not seen (footnote)): 1480 nM; EC50 (HIV-1 variant Y188C; Table 8, isolate Y 188C, read-out: EC50): > 10 µM; EC50 (HIV-1 variant Y181C; [16]): > 100 µM; EC50 (HIV-1 variant K101E; Table 8, isolate K101E, read-out: EC50): > 20 µM; EC50 (HIV-1 variant L74V; Table 8, isolate 1.74V, read-out: EC50): 1200 nM; EC50 (HIV-1 variant A98G; Table 8, isolate A9SG, read-out: EC50): 4300 nM; EC50 (HIV-1 variant V179D; Table 8, read-out: EC50): > 10000 nM; EC50 (HIV-1 variant L100I; Table 8, isolate 1.1001, read-out: EC50): 2.1 µM; EC50 (HIV-1 variant L100I; Table 10 (values in µM), isolate L1001, read-out: EC50): 3.25 µM; EC50 (HIV-1 variant V108I; Table 8, isolate V1081, read-out: EC50): 5.3 µM; EC50 (HIV-1 variant V106A; Table 8, isolate V 106A, read-out: EC50): > 20 µM; EC50 (HIV-1 variant K103N; Table 8, read-out: EC50): > 20 µM; EC50 (HIV-1 variant K103N; [16]): > 100 µM
